From patent publication US10231954B2, “Neurodegenerative therapies” (LYTIX BIOPHARMA AS, priority 2014, dated 2019)
Like-named read-outs stand apart in the source and are kept apart here.

How the values were obtained:
Type in all cases: biochemical
NEK6 = NEK6 (Homo sapiens, UniProt Q9HC98); assay: Kinase profiling NEK6; conditions: read-out: residual kinase activity, NEK6
From the text: (§1) Any value less that 25 is considered to be highly significant inhibition.

ERK2 = ERK2 (Homo sapiens, UniProt P28482); assay: Kinase profiling ERK2; conditions: read-out: residual kinase activity, ERK2
ERK2, sequence (P28482 whole entry, species assumed): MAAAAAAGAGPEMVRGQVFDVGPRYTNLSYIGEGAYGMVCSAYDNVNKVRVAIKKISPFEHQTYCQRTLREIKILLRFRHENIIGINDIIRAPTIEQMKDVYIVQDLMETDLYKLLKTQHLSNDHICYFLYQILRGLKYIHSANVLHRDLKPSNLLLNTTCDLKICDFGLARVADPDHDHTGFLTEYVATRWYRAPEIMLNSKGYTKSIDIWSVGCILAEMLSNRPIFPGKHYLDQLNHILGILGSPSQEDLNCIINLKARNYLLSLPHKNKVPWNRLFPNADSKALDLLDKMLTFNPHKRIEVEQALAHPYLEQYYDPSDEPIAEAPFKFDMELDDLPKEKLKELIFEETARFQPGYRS
From the text: as §1

PAK4 = PAK4 (Homo sapiens, UniProt O96013); assay: Kinase profiling PAK4; conditions: read-out: residual kinase activity, PAK4
PAK4, sequence (O96013 whole entry, species assumed): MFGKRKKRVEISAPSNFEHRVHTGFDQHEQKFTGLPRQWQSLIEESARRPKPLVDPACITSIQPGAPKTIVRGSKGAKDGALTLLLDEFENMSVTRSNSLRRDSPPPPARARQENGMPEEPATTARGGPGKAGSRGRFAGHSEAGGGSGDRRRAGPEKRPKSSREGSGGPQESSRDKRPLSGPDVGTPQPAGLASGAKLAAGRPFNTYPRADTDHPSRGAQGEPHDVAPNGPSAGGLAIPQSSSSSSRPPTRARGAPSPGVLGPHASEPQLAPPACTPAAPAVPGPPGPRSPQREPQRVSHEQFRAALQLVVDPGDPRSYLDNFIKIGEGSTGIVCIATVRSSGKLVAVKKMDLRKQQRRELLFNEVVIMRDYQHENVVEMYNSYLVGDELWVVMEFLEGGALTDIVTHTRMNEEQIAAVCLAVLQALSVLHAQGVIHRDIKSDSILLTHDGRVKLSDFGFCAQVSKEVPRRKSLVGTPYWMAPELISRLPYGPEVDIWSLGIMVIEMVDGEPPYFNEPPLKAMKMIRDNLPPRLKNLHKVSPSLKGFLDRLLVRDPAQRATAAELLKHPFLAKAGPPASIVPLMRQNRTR
From the text: as §1

CK2 = assay: Kinase profiling CK2; conditions: 100 micromolar inhibitor concentration; 100 is no change
From the text: as §1

PLK1 = PLK1 (Homo sapiens, UniProt P53350); assay: Kinase profiling PLK1; conditions: read-out: residual kinase activity, PLK1
PLK1, sequence (P53350 whole entry, species assumed): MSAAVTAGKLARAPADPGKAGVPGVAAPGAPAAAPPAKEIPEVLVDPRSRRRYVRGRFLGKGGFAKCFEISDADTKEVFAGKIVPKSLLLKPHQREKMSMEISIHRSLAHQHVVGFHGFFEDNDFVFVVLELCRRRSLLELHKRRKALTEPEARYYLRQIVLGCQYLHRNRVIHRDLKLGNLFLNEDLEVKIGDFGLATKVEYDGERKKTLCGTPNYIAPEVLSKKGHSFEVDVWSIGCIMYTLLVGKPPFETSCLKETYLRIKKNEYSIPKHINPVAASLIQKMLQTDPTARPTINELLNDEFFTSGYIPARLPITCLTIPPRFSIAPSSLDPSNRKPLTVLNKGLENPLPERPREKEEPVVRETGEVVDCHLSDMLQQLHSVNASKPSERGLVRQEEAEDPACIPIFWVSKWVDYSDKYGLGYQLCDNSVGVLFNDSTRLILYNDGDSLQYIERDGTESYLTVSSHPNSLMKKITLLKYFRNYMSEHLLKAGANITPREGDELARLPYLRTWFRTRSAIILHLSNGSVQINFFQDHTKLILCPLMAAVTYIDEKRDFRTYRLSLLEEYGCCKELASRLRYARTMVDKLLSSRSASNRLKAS
From the text: as §1

HER4 = HER4 (Homo sapiens, UniProt Q15303); assay: Kinase profiling HER4; conditions: read-out: residual kinase activity, HER4
From the text: as §1

CHK2 = CHK2 (Homo sapiens, UniProt O96017); assay: Kinase profiling CHK2; conditions: read-out: residual kinase activity, CHK2
CHK2, sequence (O96017 whole entry, species assumed): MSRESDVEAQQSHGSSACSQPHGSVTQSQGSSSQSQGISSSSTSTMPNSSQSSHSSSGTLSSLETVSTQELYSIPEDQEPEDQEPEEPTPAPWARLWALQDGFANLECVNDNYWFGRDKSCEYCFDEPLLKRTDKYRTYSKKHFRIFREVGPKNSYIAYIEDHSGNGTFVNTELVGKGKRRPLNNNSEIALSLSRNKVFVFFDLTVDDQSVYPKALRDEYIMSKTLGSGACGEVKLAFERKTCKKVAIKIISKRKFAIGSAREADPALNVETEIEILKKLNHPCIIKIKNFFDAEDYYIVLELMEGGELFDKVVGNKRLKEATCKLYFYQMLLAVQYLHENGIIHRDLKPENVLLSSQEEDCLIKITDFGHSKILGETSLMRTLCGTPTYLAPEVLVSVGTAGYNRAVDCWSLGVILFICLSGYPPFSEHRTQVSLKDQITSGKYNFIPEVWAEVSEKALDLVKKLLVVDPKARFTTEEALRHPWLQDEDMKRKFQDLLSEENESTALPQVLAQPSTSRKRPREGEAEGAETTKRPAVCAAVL
From the text: as §1

CAMK1 = CAMK1 (Homo sapiens, UniProt Q14012); assay: Kinase profiling CAMK1; conditions: read-out: residual kinase activity, CAMK1
CAMK1, sequence (Q14012 whole entry, species assumed): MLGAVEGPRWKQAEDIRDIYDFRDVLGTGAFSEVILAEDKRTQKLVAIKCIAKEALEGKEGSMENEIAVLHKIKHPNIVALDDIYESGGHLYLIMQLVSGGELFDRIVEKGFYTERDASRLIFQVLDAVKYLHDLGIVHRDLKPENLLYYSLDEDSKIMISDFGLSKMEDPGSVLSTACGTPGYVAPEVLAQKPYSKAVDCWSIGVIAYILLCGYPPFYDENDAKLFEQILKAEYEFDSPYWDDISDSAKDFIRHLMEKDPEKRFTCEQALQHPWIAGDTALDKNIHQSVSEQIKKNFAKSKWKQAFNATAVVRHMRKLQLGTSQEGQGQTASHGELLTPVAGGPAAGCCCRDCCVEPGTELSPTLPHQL
From the text: as §1

TTK = biological target: T1, TTK (Homo sapiens, UniProt P33981); assay: Kinase profiling TTK; conditions: read-out: residual kinase activity, TTK
T1 sequence (P33981 1-857): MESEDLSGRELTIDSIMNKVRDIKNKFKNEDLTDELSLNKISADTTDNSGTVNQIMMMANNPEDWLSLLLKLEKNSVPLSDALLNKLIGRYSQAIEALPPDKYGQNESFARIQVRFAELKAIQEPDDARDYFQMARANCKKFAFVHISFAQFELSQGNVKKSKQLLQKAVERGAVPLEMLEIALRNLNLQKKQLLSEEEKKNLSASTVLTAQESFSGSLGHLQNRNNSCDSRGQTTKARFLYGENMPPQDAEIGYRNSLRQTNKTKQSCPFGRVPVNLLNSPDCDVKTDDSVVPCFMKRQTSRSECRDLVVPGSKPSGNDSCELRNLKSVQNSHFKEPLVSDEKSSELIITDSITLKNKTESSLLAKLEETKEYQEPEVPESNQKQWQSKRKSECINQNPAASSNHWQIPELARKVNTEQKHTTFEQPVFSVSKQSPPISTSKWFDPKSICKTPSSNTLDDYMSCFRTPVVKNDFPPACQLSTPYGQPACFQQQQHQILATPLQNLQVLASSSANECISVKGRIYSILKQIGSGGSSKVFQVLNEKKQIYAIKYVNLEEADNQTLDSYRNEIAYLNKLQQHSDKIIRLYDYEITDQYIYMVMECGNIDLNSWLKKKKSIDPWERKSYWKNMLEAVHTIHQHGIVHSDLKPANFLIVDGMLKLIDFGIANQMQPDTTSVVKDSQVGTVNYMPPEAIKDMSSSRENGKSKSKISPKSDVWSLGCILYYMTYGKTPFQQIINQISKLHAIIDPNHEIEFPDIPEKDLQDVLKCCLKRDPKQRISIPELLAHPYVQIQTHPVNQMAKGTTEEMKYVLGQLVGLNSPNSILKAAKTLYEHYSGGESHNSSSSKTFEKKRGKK
From the text: as §1

DYRK1A = DYRK1A (Homo sapiens, UniProt Q13627); assay: DYRK 1A assay (kinase profiling); conditions: read-out: residual kinase activity, DYRK1A
Procedure: Assays are stopped by addition of 5 μl of 0.5 M (3%) orthophosphoric acid and then harvested onto P81 Unifilter plates with a wash buffer of 50 mM orthophosphoric acid.
as §1

p38b MAPK = p38b MAPK (Homo sapiens, UniProt Q15759); assay: Kinase profiling p38b MAPK; conditions: read-out: residual kinase activity, p38b MAPK
p38b MAPK, sequence (Q15759 whole entry): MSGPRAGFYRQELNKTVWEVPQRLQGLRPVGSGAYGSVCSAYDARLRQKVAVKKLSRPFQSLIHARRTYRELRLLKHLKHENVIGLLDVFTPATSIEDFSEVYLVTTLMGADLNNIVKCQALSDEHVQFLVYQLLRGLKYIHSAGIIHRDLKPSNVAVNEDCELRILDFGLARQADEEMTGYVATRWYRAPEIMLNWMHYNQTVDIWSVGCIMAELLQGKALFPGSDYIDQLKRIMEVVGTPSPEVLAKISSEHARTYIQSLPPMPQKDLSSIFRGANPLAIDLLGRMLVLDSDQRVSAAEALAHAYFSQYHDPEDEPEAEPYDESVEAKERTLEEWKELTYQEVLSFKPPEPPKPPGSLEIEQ
From the text: as §1

TrkA = TrkA (Homo sapiens, UniProt P04629); assay: Kinase profiling TrkA; conditions: read-out: residual kinase activity, TrkA
TrkA, sequence (P04629 33-796, species assumed): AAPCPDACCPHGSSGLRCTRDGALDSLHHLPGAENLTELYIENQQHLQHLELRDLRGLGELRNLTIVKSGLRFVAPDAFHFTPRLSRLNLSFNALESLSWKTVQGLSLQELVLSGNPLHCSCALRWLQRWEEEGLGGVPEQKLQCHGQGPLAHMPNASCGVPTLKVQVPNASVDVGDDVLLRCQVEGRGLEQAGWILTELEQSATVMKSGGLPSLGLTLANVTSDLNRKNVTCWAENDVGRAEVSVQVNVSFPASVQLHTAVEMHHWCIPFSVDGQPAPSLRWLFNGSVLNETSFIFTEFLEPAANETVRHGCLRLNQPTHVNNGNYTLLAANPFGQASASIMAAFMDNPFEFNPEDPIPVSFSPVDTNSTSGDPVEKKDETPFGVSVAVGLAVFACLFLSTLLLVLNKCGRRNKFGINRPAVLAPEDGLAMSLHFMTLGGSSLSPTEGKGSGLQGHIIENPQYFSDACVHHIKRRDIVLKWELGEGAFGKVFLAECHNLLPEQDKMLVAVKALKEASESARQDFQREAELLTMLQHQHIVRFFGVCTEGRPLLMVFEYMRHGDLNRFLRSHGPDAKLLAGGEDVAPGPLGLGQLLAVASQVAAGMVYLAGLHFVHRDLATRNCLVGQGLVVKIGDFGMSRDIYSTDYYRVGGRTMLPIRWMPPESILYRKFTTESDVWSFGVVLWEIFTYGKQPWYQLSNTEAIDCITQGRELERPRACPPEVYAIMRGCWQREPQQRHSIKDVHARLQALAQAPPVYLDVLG
From the text: as §1

RSK2 = RSK2 (Homo sapiens, UniProt P51812); assay: Kinase profiling RSK2; conditions: read-out: residual kinase activity, RSK2
From the text: as §1

Src = Src (Homo sapiens, UniProt P12931); assay: Kinase profiling Src; conditions: read-out: residual kinase activity, Src
From the text: as §1

JNK1 = JNK1 (Homo sapiens, UniProt P45983); assay: Kinase profiling JNK1; conditions: read-out: residual kinase activity, JNK1
JNK1, sequence (P45983 whole entry, species assumed): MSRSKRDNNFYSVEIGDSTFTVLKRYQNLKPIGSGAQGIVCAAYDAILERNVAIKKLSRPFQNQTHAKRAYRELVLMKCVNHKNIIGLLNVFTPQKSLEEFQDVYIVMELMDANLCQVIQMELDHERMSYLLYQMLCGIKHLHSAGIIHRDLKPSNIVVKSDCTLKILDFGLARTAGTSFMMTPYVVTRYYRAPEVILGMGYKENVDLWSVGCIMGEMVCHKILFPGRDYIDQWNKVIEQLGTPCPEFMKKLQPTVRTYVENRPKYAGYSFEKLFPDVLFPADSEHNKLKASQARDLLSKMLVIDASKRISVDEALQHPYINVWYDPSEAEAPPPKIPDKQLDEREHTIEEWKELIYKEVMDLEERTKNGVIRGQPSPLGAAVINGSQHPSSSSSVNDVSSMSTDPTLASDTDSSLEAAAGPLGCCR
From the text: as §1

MKK1 = MKK1 (Homo sapiens, UniProt Q02750); assay: Kinase profiling MKK1; conditions: read-out: residual kinase activity, MKK1
MKK1, sequence (Q02750 whole entry, species assumed): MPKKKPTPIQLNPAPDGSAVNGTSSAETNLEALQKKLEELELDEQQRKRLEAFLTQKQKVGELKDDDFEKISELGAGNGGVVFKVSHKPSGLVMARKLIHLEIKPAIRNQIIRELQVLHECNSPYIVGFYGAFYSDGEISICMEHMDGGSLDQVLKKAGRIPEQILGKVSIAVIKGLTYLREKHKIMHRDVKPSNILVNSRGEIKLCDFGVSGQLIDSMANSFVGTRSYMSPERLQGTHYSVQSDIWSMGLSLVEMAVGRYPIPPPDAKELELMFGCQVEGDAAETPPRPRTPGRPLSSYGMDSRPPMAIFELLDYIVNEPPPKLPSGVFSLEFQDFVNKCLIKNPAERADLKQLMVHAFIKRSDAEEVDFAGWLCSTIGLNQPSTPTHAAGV
From the text: as §1

RSK1 = RSK1 (Homo sapiens, UniProt Q15418); assay: Kinase profiling RSK1; conditions: read-out: residual kinase activity, RSK1
From the text: as §1

PDK1 = biological target: T2, PDK1 (Homo sapiens, UniProt O15530); assay: Kinase profiling PDK1; conditions: read-out: residual kinase activity, PDK1
T2 sequence (O15530 1-556): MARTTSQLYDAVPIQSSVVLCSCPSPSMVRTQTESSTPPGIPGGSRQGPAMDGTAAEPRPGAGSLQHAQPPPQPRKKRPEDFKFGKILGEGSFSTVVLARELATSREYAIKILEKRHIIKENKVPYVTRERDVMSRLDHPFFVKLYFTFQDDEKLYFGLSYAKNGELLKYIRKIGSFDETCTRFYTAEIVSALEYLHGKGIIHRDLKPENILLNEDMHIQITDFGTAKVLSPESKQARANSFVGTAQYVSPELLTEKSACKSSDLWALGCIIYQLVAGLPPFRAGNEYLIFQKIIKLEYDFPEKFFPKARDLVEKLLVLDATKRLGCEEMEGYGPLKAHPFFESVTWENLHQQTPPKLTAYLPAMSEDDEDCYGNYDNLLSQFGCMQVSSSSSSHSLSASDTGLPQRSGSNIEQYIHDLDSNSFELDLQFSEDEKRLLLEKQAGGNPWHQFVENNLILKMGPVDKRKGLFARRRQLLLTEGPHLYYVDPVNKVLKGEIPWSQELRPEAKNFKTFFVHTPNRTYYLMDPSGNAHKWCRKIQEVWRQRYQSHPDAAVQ
From the text: as §1

[1] = 100 micromolar inhibitor concentration, 100 is no change

NEK6, sequence (Q9HC98 whole entry, species assumed): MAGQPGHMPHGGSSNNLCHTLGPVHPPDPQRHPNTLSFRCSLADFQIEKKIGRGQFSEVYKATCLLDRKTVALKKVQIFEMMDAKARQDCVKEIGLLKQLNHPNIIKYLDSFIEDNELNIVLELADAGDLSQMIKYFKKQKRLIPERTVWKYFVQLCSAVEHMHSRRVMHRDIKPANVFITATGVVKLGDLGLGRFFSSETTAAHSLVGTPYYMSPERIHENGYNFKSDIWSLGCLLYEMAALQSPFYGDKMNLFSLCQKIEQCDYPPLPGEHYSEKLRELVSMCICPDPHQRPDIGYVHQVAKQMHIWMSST

## CC(=O)Nc1nc2cc(O)ccc2s1 [Compound 01-66, N-(5-hydroxybenzo[d]thiazol-2-yl)acetamide]
NEK6
  remaining activity at 100 µM: 82%
ERK2
  remaining activity at 100 µM: 104%
PAK4
  remaining activity at 100 µM: 66%
CK2
  residual kinase activity, CK2: 54
PLK1
  remaining activity at 100 µM: 103%
HER4
  remaining activity at 100 µM: 40%
CHK2
  remaining activity at 100 µM: 31%
CAMK1
  remaining activity at 100 µM: 69%
TTK
  remaining activity at 100 µM: 39%
DYRK1A
  remaining activity at 100 µM: 5%
p38b MAPK
  remaining activity at 100 µM: 92%
TrkA
  remaining activity at 100 µM: 57%
RSK2
  remaining activity at 100 µM: 66%
Src
  remaining activity at 100 µM: 45%
JNK1
  remaining activity at 100 µM: 53%
MKK1
  remaining activity at 100 µM: 31%
RSK1
  remaining activity at 100 µM: 44%
PDK1
  remaining activity at 100 µM: 69%

## CC(=O)Nc1nc2ccc(O)cc2s1 [Compound 01-71]
NEK6; [1]
  remaining activity at 100 µM: 75%
ERK2; [1]
  remaining activity at 100 µM: 83%
PAK4; [1]
  remaining activity at 100 µM: 51%
CK2
  residual kinase activity, CK2: 23
PLK1; [1]
  remaining activity at 100 µM: 97%
HER4; [1]
  remaining activity at 100 µM: 36%
CHK2; [1]
  remaining activity at 100 µM: 17%
CAMK1; [1]
  remaining activity at 100 µM: 52%
TTK; [1]
  remaining activity at 100 µM: 31%
DYRK1A; [1]
  remaining activity at 100 µM: 20%
p38b MAPK; [1]
  remaining activity at 100 µM: 106%
TrkA; [1]
  remaining activity at 100 µM: 42%
RSK2; [1]
  remaining activity at 100 µM: 48%
Src; [1]
  remaining activity at 100 µM: 57%
JNK1; [1]
  remaining activity at 100 µM: 72%
MKK1; [1]
  remaining activity at 100 µM: 35%
RSK1; [1]
  remaining activity at 100 µM: 25%
PDK1; [1]
  remaining activity at 100 µM: 63%

## CC(=O)Nc1nc2ccc(C(F)(F)F)cc2s1 [Compound 01-90]
NEK6; [1]
  remaining activity at 100 µM: 107%
ERK2; [1]
  remaining activity at 100 µM: 102%
PAK4; [1]
  remaining activity at 100 µM: 67%
CK2
  residual kinase activity, CK2: 92
PLK1; [1]
  remaining activity at 100 µM: 80%
HER4; [1]
  remaining activity at 100 µM: 97%
CHK2; [1]
  remaining activity at 100 µM: 43%
CAMK1; [1]
  remaining activity at 100 µM: 64%
TTK; [1]
  remaining activity at 100 µM: 49%
DYRK1A; [1]
  remaining activity at 100 µM: 8%
p38b MAPK; [1]
  remaining activity at 100 µM: 82%
TrkA; [1]
  remaining activity at 100 µM: 45%
RSK2; [1]
  remaining activity at 100 µM: 92%
Src; [1]
  remaining activity at 100 µM: 63%
JNK1; [1]
  remaining activity at 100 µM: 104%
MKK1; [1]
  remaining activity at 100 µM: 80%
RSK1; [1]
  remaining activity at 100 µM: 74%
PDK1; [1]
  remaining activity at 100 µM: 93%

## CC(=O)Nc1nc2ccc(C#N)cc2s1 [Compound 01-94]
NEK6; [1]
  remaining activity at 100 µM: 86%
ERK2; [1]
  remaining activity at 100 µM: 91%
PAK4; [1]
  remaining activity at 100 µM: 34%
CK2
  residual kinase activity, CK2: 66
PLK1; [1]
  remaining activity at 100 µM: 108%
HER4; [1]
  remaining activity at 100 µM: 90%
CHK2; [1]
  remaining activity at 100 µM: 30%
CAMK1; [1]
  remaining activity at 100 µM: 80%
TTK; [1]
  remaining activity at 100 µM: 33%
DYRK1A; [1]
  remaining activity at 100 µM: 9%
p38b MAPK; [1]
  remaining activity at 100 µM: 100%
TrkA; [1]
  remaining activity at 100 µM: 87%
RSK2; [1]
  remaining activity at 100 µM: 87%
Src; [1]
  remaining activity at 100 µM: 94%
JNK1; [1]
  remaining activity at 100 µM: 90%
MKK1; [1]
  remaining activity at 100 µM: 34%
RSK1; [1]
  remaining activity at 100 µM: 51%
PDK1; [1]
  remaining activity at 100 µM: 97%
